Measured values reported in patent US20110152316A1, “3,4-SUBSTITUTED PIPERIDINE DERIVATIVES AS RENIN INHIBITORS” (priority 2008, published 2011).
pIC50: −log10 of the molar value.

What was measured:
Human recombinant renin = molecular target: T1, Human recombinant renin (Homo sapiens, UniProt P00797); experiment: Inhibition of human recombinant renin (buffer); type: biochemical; conditions: 50 mM MOPS pH 7.4, 37° C., 3 hours
T1 construct: purchased Proteos
T1 sequence (P00797 67-406): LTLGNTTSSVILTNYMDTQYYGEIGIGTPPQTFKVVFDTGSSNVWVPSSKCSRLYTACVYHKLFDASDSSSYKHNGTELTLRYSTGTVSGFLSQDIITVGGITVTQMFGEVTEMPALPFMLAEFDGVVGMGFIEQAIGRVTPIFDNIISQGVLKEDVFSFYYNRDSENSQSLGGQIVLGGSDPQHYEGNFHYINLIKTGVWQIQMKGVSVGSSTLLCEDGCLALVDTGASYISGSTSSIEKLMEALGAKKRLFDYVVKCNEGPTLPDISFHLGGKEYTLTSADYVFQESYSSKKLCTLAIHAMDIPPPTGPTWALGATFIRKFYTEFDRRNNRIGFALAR
Protocol: Human recombinant renin (Proteos) in 50 mM MOPS pH 7.4, 100 mM NaCl, 0.002% Tween 20 at a final concentration of […] is incubated with inhibitors from a 50 fold concentrated DMSO solution and 6 μM of an internally-quench fluorescent peptide: DNP-Lys-His-Pro-Phe-His-Leu-Val-Ile-His-D,L-Amp (SEQ ID NO: 1); Paschalidou K. et al., Biochem J., 2004, 382, 1031). The reactions take place in a Costar 384 well black plate (#3573) at 37° C. for 3 hours. Fluorescence is measured at times 0 and 3 hours with a SpectraMax Gemini EM reader set at an excitation wavelength of 328 nm and at an emission wavelength of 388 nm. Background fluorescence at t=0 is subtracted from the measurement at t=3 hours. Inhibitory activity of the compounds is expressed as IC 50.

[1] = molecular target: T2, recombinant renin in human plasma (Homo sapiens, UniProt P00797); experiment: Inhibition of renin in human plasma; type: biochemical; conditions: human EDTA plasma, 37° C., 1 hour
T2 construct: purchased Proteos
T2 sequence (P00797 67-406): T1 sequence (P00797 67-406)
Protocol: Human EDTA-collected plasma is rapidly thawed in warm water and centrifuged at 2900 g for 15 minutes at 4° C. The supernatant is collected and recombinant renin (Proteos) is added at a final concentration of 1 nM. The plasma is transferred to a Costar black 384 well plate (#3573). Renin inhibitors are added from a 17.5 fold concentrated DMSO solution and pre-incubated at 37° C. for 10 minutes. The internally-quench fluorescent peptide QXL520™-Lys-His-Pro-Phe-His-Leu-Val-Ile-His-Lys (5-FAM) (Anaspec), SEQ ID NO: 2, is diluted in 3M Tris pH 7.2, 200 mM EDTA and added to the plasma. The final concentrations are: 6 μM substrate, 342 mM Tris, 23 mM EDTA. The plate is incubated at 37° C. for 1 hour. The plate is read in a SpectraMax Gemini EM reader set at an excitation wavelength of 490 nm and an emission wavelength of 520 nm at times 0 and 1 hour. Background fluorescence at t=0 is subtracted from the measurement at t=1 hour. Inhibitory activity of the compounds is expressed as IC50.

Row | pIC50 (Human recombinant renin) | pIC50 [1] | Compound
1 | 7.89 | 7.41 | COCCCc1cc(CN(C(=O)[C@@H]2CNCC[C@H]2c2cc(=O)n(C)c3ccccc23)C2CC2)cc(OCCOC)c1 (relative stereo) [Example 1, trans-N-Cyclopropyl-4-(1-methyl-2-oxo-1,2-dihydro-4-quinolinyl)-N-({3-{[2-(methyloxy)ethyl]oxy}-5-[3-(methyloxy)propyl]phenyl}methyl)-3-piperidinecarboxamide]
2 | 8.66 | 8.12 | COCCCc1cc(CN(C(=O)[C@@H]2CNCC[C@H]2c2cc(=O)n(C)c3cc(Cl)ccc23)C2CC2)cc(OCCOC)c1 (relative stereo) [Example 2, trans-4-(7-Chloro-1-methyl-2-oxo-1,2-dihydro-4-quinolinyl)-N-cyclopropyl-N-({3-{[2-(methyloxy)ethyl]oxy}-5-[3-(methyloxy)propyl]phenyl}methyl)-3-piperidinecarboxamide]
